Test results taken from publication PMC10999543, “Identification of kinase modulators as host-directed therapeutics against intracellular methicillin-resistant Staphylococcus aureus” (Frontiers in Cellular and Infection Microbiology, 2024).
Where two headings read alike, the source gives them in different places.

Tests used:
intracellular MRSA = assay type: cell-based, Staphylococcus aureus; settings: for z-scoreMRSA+ mean: mean of 3 replicates; for z-scoreMRSA+ rep 1 / %GFP+ rep 1: replicate 1; for z-scoreMRSA+ rep 2 / %GFP+ rep 2: replicate 2; for z-scoreMRSA+ rep 3 / %GFP+ rep 3: replicate 3
Summary of the method: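 HeLa cells infected with GFP-MRSA (MOI ~6.8), gentamicin-cleared, then incubated overnight at 37°C with inhibitors plus 5 µg/ml gentamicin; DMSO as negative control, triplicates. Flow cytometry gave % GFP-positive cells and cell count (viability surrogate); hits by plate z-score (MRSA ≤ -2, HeLa count ≥ -3).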

HeLa cells = experiment: Compound screen by flow cytometry: HeLa cell count as surrogate readout of cell viability (z-scoreHeLa); assay type: cell-based, human
Summary of the method: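 HeLa cells were infected with GFP-MRSA (mean MOI 6.8 ± 4.6) for 1 h, and extracellular bacteria were killed with 30 µg/ml gentamicin. Cells were then incubated overnight with kinase inhibitors in 5 µg/ml gentamicin, in triplicate against DMSO controls. Flow-cytometric cell count served as a viability surrogate, expressed as a plate z-score.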

[1] = PKIS compound screen, Yes/No call
[2] = PKIS compound screen, Yes/No call (effect without cell death)
[3] = PKIS compounds raw data, MRSA-infected HeLa cells
[4] = PKIS compound screen, mean of 3 replicates
[5] = PKIS compound screen, replicate 1
[6] = PKIS compound screen, replicate 2
[7] = PKIS compound screen, replicate 3
[8] = PKIS compounds raw data, replicate 1, HeLa cell count
[9] = PKIS compounds raw data, replicate 2, HeLa cell count
[10] = PKIS compounds raw data, replicate 3, HeLa cell count
[11] = PKIS compound screen raw data, MRSA-infected HeLa cells
[12] = PKIS compound screen, MRSA-infected HeLa cells
[13] = Yes/No: effect without cell death
[14] = compound screen, MRSA-infected HeLa cells

| SMILES | effect (intracellular MRSA; [1]) | hit (intracellular MRSA; [2]) | z-scoreMRSA+ mean (intracellular MRSA; PKIS compound screen) | z-scoreMRSA+ rep 1 (intracellular MRSA; PKIS compound screen) | z-scoreMRSA+ rep 2 (intracellular MRSA; PKIS compound screen) | z-scoreMRSA+ rep 3 (intracellular MRSA; PKIS compound screen) | %GFP+ rep 1 (intracellular MRSA; [3]) [%] | %GFP+ rep 2 (intracellular MRSA; [3]) [%] | %GFP+ rep 3 (intracellular MRSA; [3]) [%] | cell death (HeLa cells; [1]) | z-scoreHeLa mean (HeLa cells; [4]) | z-scoreHeLa rep 1 (HeLa cells; [5]) | z-scoreHeLa rep 2 (HeLa cells; [6]) | z-scoreHeLa rep 3 (HeLa cells; [7]) | cell count rep 1 (HeLa cells; [8]) | cell count rep 2 (HeLa cells; [9]) | cell count rep 3 (HeLa cells; [10]) | %GFP+ rep 1 (intracellular MRSA; [11]) [%] | %GFP+ rep 2 (intracellular MRSA; [11]) [%] | %GFP+ rep 3 (intracellular MRSA; [11]) [%] | other results |
| --- | --- | --- | --- | --- | --- | --- | --- | --- | --- | --- | --- | --- | --- | --- | --- | --- | --- | --- | --- | --- | --- |
| c1ccc(COc2ccc(Nc3ncnc4ccc(-c5ccco5)cc34)cc2)cc1 [GW284372X] | No | No | -0.74 | -0.66 | -0.47 | -1.09 | 11.1 | 12.1 | 12.2 | No | 0.48 | -0.33 | 0.65 | 1.13 | 4410 | 5123 | 9333 |  |  |  |  |
| COc1cc2nccc(Nc3cccc(Oc4ccccc4)c3)c2cc1OC [GW284543A] |  | No |  |  |  |  |  |  |  |  |  |  |  |  |  |  |  | 19.7 | 21.7 | 21.6 | z-scoreMRSA+ mean (intracellular MRSA; [12]): 0.70; z-scoreMRSA+ rep 1 (intracellular MRSA; [12]): 0.58; z-scoreMRSA+ rep 2 (intracellular MRSA; [12]): 0.96; z-scoreMRSA+ rep 3 (intracellular MRSA; [12]): 0.55; effect (intracellular MRSA; PKIS compound screen, Yes/No call on z-scoreMRSA+): No; cell count rep 1 (HeLa cells; PKIS compound screen raw data, HeLa cell count, replicate 1): 34308; cell count rep 2 (HeLa cells; PKIS compound screen raw data, HeLa cell count, replicate 2): 33464; cell count rep 3 (HeLa cells; PKIS compound screen raw data, HeLa cell count, replicate 3): 39414; z-scoreHeLa mean (HeLa cells; PKIS compound screen, HeLa cell count, mean of 3 replicates): 0.58; z-scoreHeLa rep 1 (HeLa cells; PKIS compound screen, HeLa cell count, replicate 1): 2.15; z-scoreHeLa rep 2 (HeLa cells; PKIS compound screen, HeLa cell count, replicate 2): -0.25; z-scoreHeLa rep 3 (HeLa cells; PKIS compound screen, HeLa cell count, replicate 3): -0.18; cell death (HeLa cells; PKIS compound screen, Yes/No call on z-scoreHeLa): No |
| NS(=O)(=O)c1ccc(N/C=C2\C(=O)Nc3ccc4ncsc4c32)cc1 [GW297361X] | No | No | 0.46 | 0.87 | 1.17 | -0.68 | 15.9 | 17.0 | 13.6 | No | -1.04 | -1.65 | -0.59 | -0.88 | 2950 | 3493 | 5130 |  |  |  |  |
| CC(C)c1ccc2c(c1)NC(=O)C2=NNc1ccc(S(N)(=O)=O)cc1 [GW300653X] |  |  |  |  |  |  | 12.5 | 13.7 | 13.3 |  |  |  |  |  | 3693 | 3535 | 5783 |  |  |  | effect (intracellular MRSA; Yes/No call from z-scoreMRSA+): No; hit (intracellular MRSA; [13]): No; z-scoreMRSA+ mean (intracellular MRSA; [14]): -0.30; z-scoreMRSA+ rep 1 (intracellular MRSA; [14]): -0.21; z-scoreMRSA+ rep 2 (intracellular MRSA; [14]): 0.07; z-scoreMRSA+ rep 3 (intracellular MRSA; [14]): -0.77; cell death (HeLa cells; Yes/No call from z-scoreHeLa): No; z-scoreHeLa mean (HeLa cells; compound screen, HeLa cell count, mean of 3 replicates): -0.70; z-scoreHeLa rep 1 (HeLa cells; compound screen, HeLa cell count, replicate 1): -0.98; z-scoreHeLa rep 2 (HeLa cells; compound screen, HeLa cell count, replicate 2): -0.55; z-scoreHeLa rep 3 (HeLa cells; compound screen, HeLa cell count, replicate 3): -0.56 |
| CN(C)c1cc2c(Nc3ccc4nc(Cc5ccccc5)[nH]c4c3)ncnc2cn1 [GW301888X] | No | No | 0.0238 | -0.0117 | 0.30 | -0.22 | 27.0 | 27.6 | 26.1 | No | 0.66 | 0.47 | 0.90 | 0.61 | 6836 | 7361 | 6557 |  |  |  |  |
| O=C1Nc2ccc(I)cc2C1=Cc1cc(Br)c(O)c(Br)c1 [GW305074X] |  |  |  |  |  |  |  |  |  |  |  |  |  |  |  |  |  | 19.6 | 17.6 | 21.1 | effect (intracellular MRSA; Yes/No call from z-scoreMRSA+): No; hit (intracellular MRSA; [13]): No; z-scoreMRSA+ mean (intracellular MRSA; [14]): -0.96; z-scoreMRSA+ rep 1 (intracellular MRSA; [14]): -1.32; z-scoreMRSA+ rep 2 (intracellular MRSA; [14]): -1.22; z-scoreMRSA+ rep 3 (intracellular MRSA; [14]): -0.33; cell death (HeLa cells): No; cell count rep 1 (HeLa cells; human): 1595; cell count rep 2 (HeLa cells; human): 1814; cell count rep 3 (HeLa cells; human): 1196; z-scoreHeLa mean (HeLa cells; human): -2.15; z-scoreHeLa rep 1 (HeLa cells; human): -1.99; z-scoreHeLa rep 2 (HeLa cells; human): -1.91; z-scoreHeLa rep 3 (HeLa cells; human): -2.55 |
